Test results from ChEMBL document CHEMBL1201862, “PubChem BioAssay data set” (2004).
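Where inhibition never reached the appropriate level, the endpoint shown equals the highest concentration tested. Otherwise, values were interpolated linearly from a five-concentration, 48-hour dose response in 96-well plates. The concentration for 50% growth inhibition is given as GI50.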 Active and inactive are the calls of the source. Rule as the data show it: active = GI50 up to about 1.1 µM and inactive = higher.

How the values were obtained:
Experiment in all cases: NCI-60 cell line screen, 48 h
HOP-18 = test system: HOP-18
OVCAR-8 = test system: OVCAR-8
CCRF-CEM = test system: CCRF-CEM
RXF 393 = test system: RXF 393
SF-295 = test system: SF-295
NCI-H460 = test system: NCI-H460
K562 = test system: K562
SW-620 = test system: SW-620
HCT-116 = test system: HCT-116
RXF 631 = test system: RXF 631
KM-20L2 = test system: KM-20L2
EKVX = test system: EKVX
NCI-H522 = test system: NCI-H522
SNB-78 = test system: SNB-78
KM12 = test system: KM12
CAKI-1 = test system: CAKI-1
A549 = test system: A549
OVCAR-3 = test system: OVCAR-3
SR = test system: SR
ACHN = test system: ACHN
HOP-62 = test system: HOP-62
M19-MEL = test system: M19-MEL
SK-MEL-5 = test system: SK-MEL-5
IGROV-1 = test system: IGROV-1
DMS-114 = test system: DMS-114
OVCAR-5 = test system: OVCAR-5
HT-29 = test system: HT-29
SNB-19 = test system: SNB-19
Malme-3M = test system: Malme-3M
SN12C = test system: SN12C
UO-31 = test system: UO-31
LOX IMVI = test system: LOX IMVI
SF-268 = test system: SF-268
COLO 205 = test system: COLO 205
DLD-1 = test system: DLD-1
UACC-257 = test system: UACC-257
HCC 2998 = test system: HCC 2998
SK-MEL-28 = test system: SK-MEL-28
M14 = test system: M14
786-0 = test system: 786-0
HCT-15 = test system: HCT-15
SK-OV-3 = test system: SK-OV-3
OVCAR-4 = test system: OVCAR-4
HOP-92 = test system: HOP-92
U-251 = test system: U-251
LXFL 529 = test system: LXFL 529
NCI-H226 = test system: NCI-H226
UACC-62 = test system: UACC-62
SNB-75 = test system: SNB-75
NCI-H23 = test system: NCI-H23
HL-60 = test system: HL-60
RPMI-8226 = test system: RPMI-8226
SF-539 = test system: SF-539
A498 = test system: A498
SK-MEL-2 = test system: SK-MEL-2
MOLT-4 = test system: MOLT-4
XF498 = test system: XF498
TK-10 = test system: TK-10

CCCCOC(=O)CNC(=O)OC/C=C/C#CC#C/C=C/COC(=O)NCC(=O)OCCCC
GI50 (HOP-18): > 10 µM (inactive) | GI50 (OVCAR-8): > 10 µM (inactive) | GI50 (CCRF-CEM): > 10 µM (inactive) | GI50 (RXF 393): > 10 µM (inactive) | GI50 (SF-295): > 10 µM (inactive) | GI50 (NCI-H460): > 10 µM (inactive) | GI50 (K562): > 10 µM (inactive) | GI50 (SW-620): > 100 µM (inactive) | GI50 (HCT-116): > 10 µM (inactive) | GI50 (RXF 631): > 10 µM (inactive) | GI50 (KM-20L2): > 10 µM (inactive) | GI50 (EKVX): > 10 µM (inactive) | GI50 (NCI-H522): > 10 µM (inactive) | GI50 (SNB-78): > 10 µM (inactive) | GI50 (KM12): > 10 µM (inactive) | GI50 (CAKI-1): > 10 µM (inactive) | GI50 (A549): > 10 µM (inactive) | GI50 (OVCAR-3): > 10 µM (inactive) | GI50 (SR): > 10 µM (inactive) | GI50 (ACHN): > 10 µM (inactive) | GI50 (HOP-62): > 10 µM (inactive) | GI50 (M19-MEL): > 10 µM (inactive) | GI50 (SK-MEL-5): > 10 µM (inactive) | GI50 (IGROV-1): > 10 µM (inactive) | GI50 (DMS-114): > 10 µM (inactive) | GI50 (OVCAR-5): > 10 µM (inactive) | GI50 (HT-29): > 10 µM (inactive) | GI50 (SNB-19): > 10 µM (inactive) | GI50 (Malme-3M): > 10 µM (inactive) | GI50 (SN12C): > 10 µM (inactive) | GI50 (UO-31): > 10 µM (inactive) | GI50 (LOX IMVI): > 10 µM (inactive) | GI50 (SF-268): > 10 µM (inactive) | GI50 (COLO 205): > 10 µM (inactive) | GI50 (DLD-1): > 10 µM (inactive) | GI50 (UACC-257): > 10 µM (inactive) | GI50 (HCC 2998): > 10 µM (inactive) | GI50 (SK-MEL-28): > 10 µM (inactive) | GI50 (M14): > 10 µM (inactive) | GI50 (786-0): 68.7 µM (inactive) | GI50 (HCT-15): > 10 µM | GI50 (SK-OV-3): > 10 µM (inactive) | GI50 (OVCAR-4): > 10 µM (inactive) | GI50 (HOP-92): > 10 µM (inactive) | GI50 (U-251): > 10 µM (inactive) | GI50 (LXFL 529): > 10 µM (inactive) | GI50 (NCI-H226): > 10 µM (inactive) | GI50 (UACC-62): > 10 µM (inactive) | GI50 (SNB-75): 27 µM (inactive) | GI50 (NCI-H23): > 10 µM (inactive) | GI50 (HL-60): > 10 µM (inactive) | GI50 (RPMI-8226): > 10 µM (inactive) | GI50 (SF-539): > 10 µM (inactive) | GI50 (A498): > 10 µM (inactive) | GI50 (SK-MEL-2): > 10 µM (inactive) | GI50 (MOLT-4): > 10 µM (inactive) | GI50 (XF498): > 10 µM (inactive) | GI50 (TK-10): > 10 µM (inactive)

N#Cc1ccc(Oc2cccc(Oc3ccccc3)c2)cc1C#N
GI50 (HOP-18): > 10 µM (inactive) | GI50 (OVCAR-8): > 10 µM (inactive) | GI50 (CCRF-CEM): 23.3 µM (inactive) | GI50 (RXF 393): 64 µM (inactive) | GI50 (SF-295): 76.2 µM (inactive) | GI50 (NCI-H460): 74.5 µM (inactive) | GI50 (K562): 41.4 µM (inactive) | GI50 (SW-620): > 100 µM (inactive) | GI50 (HCT-116): 44.3 µM (inactive) | GI50 (RXF 631): 79.6 µM (inactive) | GI50 (KM-20L2): > 10 µM (inactive) | GI50 (EKVX): 37.5 µM (inactive) | GI50 (NCI-H522): 14.2 µM (inactive) | GI50 (SNB-78): > 10 µM (inactive) | GI50 (KM12): > 10 µM (inactive) | GI50 (CAKI-1): > 10 µM (inactive) | GI50 (A549): 42 µM (inactive) | GI50 (OVCAR-3): 75.2 µM (inactive) | GI50 (SR): > 10 µM (inactive) | GI50 (ACHN): 54.3 µM (inactive) | GI50 (HOP-62): > 10 µM (inactive) | GI50 (M19-MEL): > 10 µM (inactive) | GI50 (SK-MEL-5): 36.7 µM (inactive) | GI50 (IGROV-1): > 10 µM (inactive) | GI50 (DMS-114): 31.9 µM (inactive) | GI50 (OVCAR-5): > 10 µM (inactive) | GI50 (HT-29): > 10 µM (inactive) | GI50 (SNB-19): 28.5 µM (inactive) | GI50 (Malme-3M): > 10 µM (inactive) | GI50 (SN12C): > 10 µM (inactive) | GI50 (UO-31): 14.9 µM (inactive) | GI50 (LOX IMVI): > 10 µM (inactive) | GI50 (SF-268): 48.2 µM (inactive) | GI50 (COLO 205): > 10 µM (inactive) | GI50 (DLD-1): > 10 µM (inactive) | GI50 (UACC-257): > 10 µM (inactive) | GI50 (HCC 2998): > 10 µM (inactive) | GI50 (SK-MEL-28): 61.7 µM (inactive) | GI50 (M14): > 10 µM (inactive) | GI50 (786-0): > 10 µM (inactive) | GI50 (HCT-15): > 10 µM | GI50 (SK-OV-3): > 10 µM (inactive) | GI50 (OVCAR-4): 36.7 µM (inactive) | GI50 (HOP-92): > 10 µM (inactive) | GI50 (U-251): 71.1 µM (inactive) | GI50 (LXFL 529): 61 µM (inactive) | GI50 (NCI-H226): > 10 µM (inactive) | GI50 (UACC-62): > 10 µM (inactive) | GI50 (SNB-75): 1.35 µM (inactive) | GI50 (NCI-H23): 44.8 µM (inactive) | GI50 (HL-60): 31.9 µM (inactive) | GI50 (RPMI-8226): > 10 µM (inactive) | GI50 (SF-539): 99.5 µM (inactive) | GI50 (A498): 41.5 µM (inactive) | GI50 (SK-MEL-2): 64 µM (inactive) | GI50 (MOLT-4): 30.8 µM (inactive) | GI50 (XF498): > 10 µM (inactive) | GI50 (TK-10): > 10 µM (inactive)
